pIC50: −log10 of the molar value. Peptide text beside a SMILES is read from it.
Legend:
HeLa [1] = experiment: Antiproliferative activity against human HeLa cells under 10 J/cm2 light irradiation at 660 nm by CCK8 assay; assay type: functional, cell-based; settings: light or radiation study
[2] = Antiproliferative activity against human HUVEC cells under dark condition by CCK8 assay; assay type: toxicity, cell-based
Huh-7 [3] = experiment: Antiproliferative activity against human Huh-7 cells under dark condition by CCK8 assay; assay type: functional, cell-based
[4] = Aggregation property of compound in PBS; assay type: physicochemical; settings: buffer
HepG2 [5] = experiment: Antiproliferative activity against human HepG2 cells under dark condition by CCK8 assay; assay type: functional, cell-based
HepG2 [6] = experiment: Antiproliferative activity against human HepG2 cells under 10 J/cm2 light irradiation at 660 nm by CCK8 assay; assay type: functional, cell-based; settings: HepG2, light or radiation study
[7] = Photostability of compound under 250 mW/cm2 light irradiation at 660 nm incubated for 10 mins by UV spectrophotometry; assay type: physicochemical; settings: 0.66 µM
[8] = Partition coefficient, logP of compound; assay type: physicochemical; settings: octanol/water
MCF7 [9] = experiment: Antiproliferative activity against human MCF7 cells under 10 J/cm2 light irradiation at 660 nm by CCK8 assay; assay type: functional, cell-based; settings: MCF7, light or radiation study
HeLa [10] = experiment: Antiproliferative activity against human HeLa cells under dark condition by CCK8 assay; assay type: functional, cell-based
Huh-7 [11] = experiment: Antiproliferative activity against human Huh-7 cells under 10 J/cm2 light irradiation at 660 nm by CCK8 assay; assay type: functional, cell-based; settings: Huh-7, light or radiation study
chymotrypsin = chymotrypsin (Homo sapiens, UniProt P17538+P40313+Q6GPI1+Q99895); experiment: Stability of compound assessed as chymotrypsin (unknown origin)-mediated compound degradation in PBS at pH 7.4 by measuring half life; assay type: ADME, protein assay
[12] = Antiproliferative activity against human HUVEC cells under 10 J/cm2 light irradiation at 660 nm by CCK8 assay; assay type: toxicity, cell-based
MCF7 [13] = experiment: Antiproliferative activity against human MCF7 cells under dark condition by CCK8 assay; assay type: functional, cell-based

Compound | pIC50 (HeLa [1]) | pIC50 [2] | pIC50 (Huh-7 [3]) | Activity [4] | pIC50 (HepG2 [5]) | pIC50 (HepG2 [6]) | Stability [7] | logP [8] | pIC50 (MCF7 [9]) | pIC50 (HeLa [10]) | pIC50 (Huh-7 [11]) | half-life (chymotrypsin) [h] | pIC50 [12] | pIC50 (MCF7 [13])
C=Cc1c(C)c2cc3nc(c(CC(=O)O)c4[nH]c(cc5nc(cc1[nH]2)C(C)=C5CC)c(C)c4C(=O)NCCCC(=O)N[C@@H](CC(=O)O)C(=O)N[C@@H](Cc1ccc(O)cc1)C(=O)N[C@@H](CCC(=O)O)C(=O)N[C@@H](CCSC)C(=O)N[C@@H](Cc1cnc[nH]1)C(=O)N[C@@H](CC(C)C)C(=O)N[C@@H](Cc1c[nH]c2ccccc12)C(=O)N[C@@H](Cc1c[nH]c2ccccc12)C(=O)NCC(=O)N[C@H](C(=O)N[C@@H](CCC(=O)O)C(=O)N[C@@H](CC(C)C)C(=O)O)[C@@H](C)O)[C@@H](CCC(=O)O)[C@@H]3C (HELM PEPTIDE1{[C=Cc1c(C)c2cc3nc(c(CC(=O)O)c4[nH]c(cc5nc(cc1[nH]2)C(C)=C5CC)c(C)c4C(=O)[*:2])[C@@H](CCC(=O)O)[C@@H]3C].[O=C(CCCN[*:1])[*:2]].D.Y.E.M.H.L.W.W.G.T.E.L}$$$$V2.0) | 5.33 | < 3.70 | < 3.70 | Active | < 3.70 | 5.77 | Stable | 1.5 | 5.28 | < 3.70 | 5.72 | 1.3 | 5.01 | < 3.70
H-DHLASLWWGTEL-OH |  |  |  |  |  |  |  |  |  |  |  | 1.1 |  | 
C=Cc1c(C)c2cc3nc(c(CC(=O)O)c4[nH]c(cc5nc(cc1[nH]2)C(C)=C5CC)c(C)c4C(=O)NCCCC(=O)N[C@@H](CCCCN)C(=O)N[C@@H](CCCCN)C(=O)N[C@@H](CCCCN)C(=O)N[C@@H](CCCNC(=N)N)C(=O)N[C@@H](CC(C)C)C(=O)N[C@@H](CC(N)=O)C(=O)N[C@H](C(=O)NCC(=O)NCC(=O)N[C@H](C(=O)N[C@@H](Cc1ccc(O)cc1)C(=O)N[C@@H](Cc1ccccc1)C(=O)N[C@@H](CC(C)C)C(=O)N[C@H](C(=O)N[C@H](C(=O)N[C@@H](CCCNC(=N)N)C(=O)N[C@@H](CCC(N)=O)C(=O)O)[C@@H](C)O)[C@@H](C)O)[C@@H](C)O)C(C)C)[C@@H](CCC(=O)O)[C@@H]3C (HELM PEPTIDE1{[C=Cc1c(C)c2cc3nc(c(CC(=O)O)c4[nH]c(cc5nc(cc1[nH]2)C(C)=C5CC)c(C)c4C(=O)[*:2])[C@@H](CCC(=O)O)[C@@H]3C].[O=C(CCCN[*:1])[*:2]].K.K.K.R.L.N.V.G.G.T.Y.F.L.T.T.R.Q}$$$$V2.0) | 6.24 | < 3.70 | < 3.70 | Not Active | < 3.70 | 6.48 | Stable | -0.5 | 6.10 | < 3.70 | 6.47 | 1.3 | 6.42 | < 3.70
